Measurements as given in patent publication US10308667B2, “Oxadiazolopyridine derivatives for use as ghrelin O-acyl transferase (GOAT) inhibitors” (Boehringer Ingelheim International GmbH, priority 2016, dated 2019).

These compounds were tested against human GOAT (Homo sapiens (Human), UniProt Q96T53) (assay: Determination of hGOAT Activity in HEK293 Cells after Incubation with Test Compound). Conditions: HEK293 cells stably transfected with preproghrelin and human GOAT; octanoate-BSA 100 μM; acyl-ghrelin in medium by ELISA after 5 hours.
Sequence of human GOAT (Q96T53 whole entry): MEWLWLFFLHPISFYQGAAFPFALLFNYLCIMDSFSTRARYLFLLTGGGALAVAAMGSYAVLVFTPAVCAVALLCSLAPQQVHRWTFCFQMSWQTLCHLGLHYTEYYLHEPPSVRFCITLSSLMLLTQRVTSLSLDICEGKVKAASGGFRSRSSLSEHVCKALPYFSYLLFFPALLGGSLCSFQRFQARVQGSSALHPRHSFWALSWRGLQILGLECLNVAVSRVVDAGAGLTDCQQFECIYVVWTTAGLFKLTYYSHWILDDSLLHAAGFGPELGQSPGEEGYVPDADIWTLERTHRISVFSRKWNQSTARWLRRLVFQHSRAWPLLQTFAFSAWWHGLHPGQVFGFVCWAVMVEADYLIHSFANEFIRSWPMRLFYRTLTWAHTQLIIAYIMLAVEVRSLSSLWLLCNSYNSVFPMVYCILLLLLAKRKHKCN
Type: cell-based
Protocol: Determination of hGOAT Activity in HEK293 Cells after Incubation with Test Compound
HEK293 cells stably transfected with two expression vectors, one coding for preproghrelin cDNA and a second for the expression of human GOATcDNA are used as a cellular model. After feeding the cells with octanoic acid for 5 hours, acyl-ghrelin is measured in cell culture medium by an ELISA procedure.
Cellline: Hek293 hGOAT/PPGhrl Clone #1B8Sodium octanoate, Sigma, Cat.-No. C5038
BD Poly-D-Lysin 384-well Plates, black-clear polystyrene BD Bioscience Cat.-No. […] ELISA human acylated Ghrelin Kit purchased from Bertin Pharman (detailed composition of buffers e.g. wash-puffer, ELISA buffer not known)
Cells are plated with a density of 5000 cells/well in 384-well poly-D-lysin plates and incubated for 1 day at 37° C., 5% CO2 in DMEM medium, 10% FCS, 1×NEAA, Puromycin (0.5 μg/ml) and G418 (1 mg/ml). Then the medium is changed to a identical medium without FCS and containing Octanoate-BSA (final concentration 100 μM each) and compound in DMSO (final DMSO concentration 0.3%). After incubation for 5 hours acylghrelin in the medium is measured by ELISA
The medium sample is diluted 1:25 in Elisa buffer, A 25 ul aliquot is transferred to a 384-well ELISA plate previously washed 4 times with 100 μL wash buffer, and 25 μl tracer-solution is added. After incubation overnight (˜20 h) at 4° C. temperature the plate is washed 4 times with 100 μl wash-buffer per well. Finally 50 μl Ellman's reagent is added to each well and the plate is incubated in the dark for 20 minutes. The absorbance is measured at 405 nm in an Envision multilabel reader and the amount of acylated ghrelin is calculated according to a acylated ghrelin standard curve provided in the same plate.
The analysis of the data is performed by calculation of the percentage of acyl-ghrelin produced in the presence of test compound compared to the amount of acyl-ghrelin produced in the vehicle control samples. An inhibitor of the GOAT enzyme will give values between 100% CTL (no inhibition) and 0% CTL (complete inhibition). IC50 values are calculated with Assay Explorer or other suited software based on curve fitting of results of 8 different compound concentrations.
Cc1nc2nonc2c(N)c1Cc1ccc(C#N)c(OCCF)n1 [Example 106, 6-(7-Amino-5-methyl-[1,2,5]oxadiazolo[3,4-b]pyridin-6-ylmethyl)-2-(2-fluoro-ethoxy)-nicotinonitrile] gave an IC50 of 0.11 nM. Cc1nc2nonc2c(N)c1Cc1ccc(NCC(F)F)c(C#N)n1 [Example 154, 6-(7-Amino-5-methyl-[1,2,5]oxadiazolo[3,4-b]pyridin-6-ylmethyl)-3-(2,2-difluoro-ethylamino)-pyridine-2-carbonitrile] gave an IC50 of 0.17 nM. For Cc1nc2nonc2c(N)c1Cc1ccc(C#N)c(N2CCOCC2)n1 [Example 136, 6-(7-Amino-5-methyl-[1,2,5]oxadiazolo[3,4-b]pyridin-6-ylmethyl)-2-morpholin-4-yl-nicotinonitrile], the IC50 was 0.033 nM. Compound Cc1nc2nonc2c(N)c1Cc1ccc(OC(F)(F)F)c(C#N)n1 [Example 33, 6-(7-Amino-5-methyl-[1,2,5]oxadiazolo[3,4-b]pyridin-6-ylmethyl)-3-trifluoromethoxy-pyridine-2-carbonitrile] has an IC50 of 0.3 nM. Compound Cc1nc2nonc2c(N)c1Cc1ncc(Cl)cn1 [Example 30, 6-(5-Chloro-pyrimidin-2-ylmethyl)-5-methyl-[1,2,5]oxadiazolo[3,4-b]pyridin-7-ylamine] has an IC50 of 2.7 nM. With Cc1nc2nonc2c(N)c1Cc1ccc(C(F)(F)F)c(C(=O)C(C)C)n1 [Example 49, 1-[6-(7-Amino-5-methyl-[1,2,5]oxadiazolo[3,4-b]pyridin-6-ylmethyl)-3-trifluoromethyl-pyridin-2-yl]-2-methyl-propan-1-one] the IC50 was 0.15 nM. For Cc1nc2nonc2c(N)c1Cc1ccc(C#N)c(N2CC(F)(F)C2)n1 [Example 142, 6-(7-Amino-5-methyl-[1,2,5]oxadiazolo[3,4-b]pyridin-6-ylmethyl)-2-(3,3-difluoro-azetidin-1-yl)-nicotinonitrile], the IC50 was 0.027 nM. Compound Cc1nc2nonc2c(N)c1Cc1cccc([S+](C)[O-])n1 (stereo not shown) [Example 85, 6-(6-Methanesulfinyl-pyridin-2-ylmethyl)-5-methyl-[1,2,5]oxadiazolo[3,4-b]pyridin-7-ylamine] has an IC50 of 6.9 nM. Cc1nc2nonc2c(N)c1Cc1ccc(-c2cncs2)c(N)n1 [Example 67, 6-(6-Amino-5-thiazol-5-yl-pyridin-2-ylmethyl)-5-methyl-[1,2,5]oxadiazolo[3,4-b]pyridin-7-ylamine] showed an IC50 of 0.05 nM. In the case of Cc1nc2nonc2c(N)c1Cc1ccc(C#N)c(=O)[nH]1 [Example 113, 6-(7-Amino-5-methyl-[1,2,5]oxadiazolo[3,4-b]pyridin-6-ylmethyl)-2-oxo-1,2-dihydro-pyridine-3-carbonitrile], the IC50 is reported as 31 nM. Work on Cc1nc2nonc2c(N)c1Cc1ccc(Cl)cn1 [Example 8, 6-(5-Chloro-pyridin-2-ylmethyl)-5-methyl-[1,2,5]oxadiazolo[3,4-b]pyridin-7-ylamine] yielded an IC50 of 0.42 nM. Compound Cc1nc2nonc2c(N)c1Cc1cccc(-c2c[nH]nc2C(F)(F)F)n1 [Example 62, 5-Methyl-6-[6-(3-trifluoromethyl-1H-pyrazol-4-yl)-pyridin-2-ylmethyl]-[1,2,5]oxadiazolo[3,4-b]pyridin-7-ylamine] has an IC50 of 0.21 nM. For Cc1nc2nonc2c(N)c1Cc1cccc(S(C)(=O)=O)n1 [Example 86, 6-(6-Methanesulfonyl-pyridin-2-ylmethyl)-5-methyl-[1,2,5]oxadiazolo[3,4-b]pyridin-7-ylamine], the IC50 was 19 nM. Cc1nc2nonc2c(N)c1Cc1cccc(Cl)n1 [Example 3, 6-(6-Chloro-pyridin-2-ylmethyl)-5-methyl-[1,2,5]oxadiazolo[3,4-b]pyridin-7-ylamine] showed an IC50 of 0.46 nM. Work on Cc1nc2nonc2c(N)c1Cc1ccc(-c2cnccn2)c(N)n1 [Example 69, 6-(6-Amino-5-pyrazin-2-yl-pyridin-2-ylmethyl)-5-methyl-[1,2,5]oxadiazolo[3,4-b]pyridin-7-ylamine] yielded an IC50 of 0.58 nM. Work on Cc1nc2nonc2c(N)c1Cc1ccc(Br)c(S(C)(=O)=O)n1 [Example 161, 6-(5-Bromo-6-methanesulfonyl-pyridin-2-ylmethyl)-5-methyl-[1,2,5]oxadiazolo[3,4-b]pyridin-7-ylamine] yielded an IC50 of 0.89 nM. In the case of Cc1nc2nonc2c(N)c1Cc1cccc(Br)n1 [Example 7, 6-(6-Bromo-pyridin-2-ylmethyl)-5-methyl-[1,2,5]oxadiazolo[3,4-b]pyridin-7-ylamine], the IC50 is reported as 0.95 nM. Compound Cc1nc2nonc2c(N)c1Cc1nccc(C(F)(F)F)n1 [Example 34, 5-Methyl-6-(4-trifluoromethyl-pyrimidin-2-ylmethyl)-[1,2,5]oxadiazolo[3,4-b]pyridin-7-ylamine] has an IC50 of 3.2 nM. Cc1nc2nonc2c(N)c1Cc1ccc(OC2CC2)cn1 [Example 41, 6-[(5-cyclopropoxypyridin-2-yl)methyl]-5-methyl-[1,2,5]oxadiazolo[3,4-b]pyridin-7-amine] gave an IC50 of 1.2 nM. In the case of Cc1nc2nonc2c(N)c1Cc1ccc(C#N)c(N2CCNC(=O)CC2)n1 [Example 141, 6-(7-Amino-5-methyl-[1,2,5]oxadiazolo[3,4-b]pyridin-6-ylmethyl)-2-(5-oxo-[1,4]diazepan-1-yl)-nicotinonitrile], the IC50 is reported as 0.14 nM. COc1ccc(Cc2c(C)nc3nonc3c2N)nc1 [Example 1, 6-(5-Methoxy-pyridin-2-ylmethyl)-5-methyl-[1,2,5]oxadiazolo[3,4-b]pyridin-7-ylamine] was tested, and the IC50 was 1.4 nM. For Cc1nc2nonc2c(N)c1Cc1ncc(Br)c(C(F)F)n1 [Example 84, 6-[5-bromo-4-(difluoromethyl)pyrimidin-2-yl]methyl-5-methyl-[1,2,5]oxadiazolo[3,4-b]pyridin-7-amine], the IC50 was 0.21 nM. With Cc1nc2nonc2c(N)c1Cc1ncc(C#N)cn1 [Example 77, 2-(7-amino-5-methyl-[1,2,5]oxadiazolo[3,4-b]pyridin-6-ylmethyl)pyrimidine-5-carbonitrile] the IC50 was 3.8 nM. Cc1nc2nonc2c(N)c1Cc1ccc(C#N)c(OC(F)F)n1 [Example 73, 6-(7-Amino-5-methyl-[1,2,5]oxadiazolo[3,4-b]pyridin-6-ylmethyl)-2-difluoromethoxy-nicotinonitrile] was tested, and the IC50 was 0.33 nM. Cc1nc2nonc2c(N)c1Cc1ncc(C#N)c(C(C)(F)F)n1 [Example 82, 2-(7-amino-5-methyl-[1,2,5]oxadiazolo[3,4-b]pyridin-6-ylmethyl)-4-(1,1-difluoroethyl)pyrimidine-5-carbonitrile] showed an IC50 of 1 nM. In the case of Cc1nc2nonc2c(N)c1Cc1cccc(-c2ccco2)n1 [Example 57, 6-(6-Furan-2-yl-pyridin-2-ylmethyl)-5-methyl-[1,2,5]oxadiazolo[3,4-b]pyridin-7-ylamine], the IC50 is reported as 0.1 nM. Cc1nc2nonc2c(N)c1Cc1ccc([S+](C)[O-])cn1 (stereo not shown) [Example 87, 6-(5-Methanesulfinyl-pyridin-2-ylmethyl)-5-methyl-[1,2,5]oxadiazolo[3,4-b]pyridin-7-ylamine] gave an IC50 of 9 nM. Work on Cc1nc2nonc2c(N)c1Cc1cccc(-c2c(C)noc2C)n1 [Example 60, 6-[6-(3,5-Dimethyl-isoxazol-4-yl)-pyridin-2-ylmethyl]-5-methyl-[1,2,5]oxadiazolo[3,4-b]pyridin-7-ylamine] yielded an IC50 of 0.48 nM. With Cc1nc2nonc2c(N)c1Cc1ccc(C#N)c(N2CC(C)(O)C2)n1 [Example 138, 6-(7-Amino-5-methyl-[1,2,5]oxadiazolo[3,4-b]pyridin-6-ylmethyl)-2-(3-hydroxy-3-methyl-azetidin-1-yl)-nicotinonitrile] the IC50 was 0.075 nM. Cc1nc2nonc2c(N)c1Cc1ccc(Br)c(NCC(C)(C)C#N)n1 [Example 127, 3-[6-(7-Amino-5-methyl-[1,2,5]oxadiazolo[3,4-b]pyridin-6-ylmethyl)-3-bromo-pyridin-2-ylamino]-2,2-di methyl-propionitrile] was tested, and the IC50 was 0.1 nM. Cc1cccc(Cc2c(C)nc3nonc3c2N)n1 [Example 53, 5-Methyl-6-(6-methyl-pyridin-2-ylmethyl)-[1,2,5]oxadiazolo[3,4-b]pyridin-7-ylamine] gave an IC50 of 2.6 nM. In the case of Cc1nc2nonc2c(N)c1Cc1ccc(Br)c(N2CCOCC2)n1 [Example 123, 6-(5-Bromo-6-morpholin-4-yl-pyridin-2-ylmethyl)-5-methyl-[1,2,5]oxadiazolo[3,4-b]pyridin-7-ylamine], the IC50 is reported as 0.026 nM. With Cc1nc2nonc2c(N)c1Cc1ccc(C#N)c(OCC2CC2(F)F)n1 (stereo not shown) [Example 112, 6-(7-Amino-5-methyl-[1,2,5]oxadiazolo[3,4-b]pyridin-6-ylmethyl)-2-(2,2-difluoro-cyclopropylmethoxy)-nicotinonitrile] the IC50 was 0.22 nM. Cc1nc2nonc2c(N)c1Cc1ccc(-n2cc(F)cn2)c(C#N)n1 [Example 155, 6-(7-Amino-5-methyl-[1,2,5]oxadiazolo[3,4-b]pyridin-6-ylmethyl)-3-(4-fluoro-pyrazol-1-yl)-pyridine-2-carbonitrile] gave an IC50 of 1.2 nM.
